Results taken from the Kinase Knowledgebase extract (Sharma et al. 2016).
Several values for one entry are separate records, joined by “and”; a condition that tells them apart may be missing. Equal values may be shown once. One block for each molecule: values may come before it.

Tests used:
[1] = biological target: MAPK14 (human) (UniProt Q16539); experiment: p38-mediated IL-1 Inhibition (LPS-Stimulated PBMCs); conditions: pbmc
[2] = biological target: MAPK14 (human) (UniProt Q16539); experiment: p38-mediated TNF-Inhibition (LPS-Stimulated PBMCs); conditions: pbmc
[3] = biological target: PIK3CG (human) (UniProt P48736); experiment: Inhibition of PIK3CG Kinase Activity
[4] = biological target: PIK3CD (Human) (UniProt O00329); experiment: Inhibition of PIK3CD Kinase Activity
[5] = biological target: PIK3CB (Human) (UniProt P42338); experiment: Inhibition of PIK3CB Kinase Activity
[6] = biological target: PIK3CD (Human) (UniProt O00329); experiment: Cellular Inhibition of PIK3CD Kinase in Raji (Burkitt’s Lymphoma) Cells
[7] = biological target: MAPK14 (human) (UniProt Q16539); experiment: p38 --- IL-1 Inhibition (whole blood cells)
[8] = biological target: MAPK14 (UniProt Q16539); experiment: p38-mediated EGFR Peptide Phosphorylation Inhibition
[9] = biological target: EGFR (UniProt P00533)
[10] = biological target: MAPK14 (human) (UniProt Q16539); experiment: MIP-1 alpha Assay (T cells)
[11] = biological target: MAPK14 (human) (UniProt Q16539); experiment: MIP-1 Beta Assay (T cells)
[12] = biological target: MAPK14 (human) (UniProt Q16539); experiment: Enzyme Assay
[13] = biological target: EGFR (human), P00533 [L861Q]
[14] = biological target: EGFR (human), P00533 [L858R]
[15] = biological target: EGFR (human), P00533 [G719C]; conditions: a375
[16] = biological target: EGFR (human), P00533 [E746-A750del]; conditions: a375
[17] = biological target: EGFR (UniProt P00533); remark: listed apart in the source
[18] = biological target: EGFR (UniProt P00533); remark: listed apart in the source
[19] = biological target: EGFR (UniProt P00533); remark: listed apart in the source
[20] = biological target: ROCK2 (human) (UniProt O75116); experiment: Assessment of ROCK2 Kinase Activity using Luciferin-Luciferase Assay
[21] = biological target: ROCK2 (human) (UniProt O75116); experiment: Assessment of ROCK2 Kinase Activity using IMAP Assay
[22] = biological target: PIK3CD (Human), O00329 [Inhibition of PIK3CG Kinase Activity]; experiment: Enzyme Assay
[23] = biological target: EGFR (UniProt P00533); remark: listed apart in the source
[24] = biological target: MAPK14 (human) (UniProt Q16539); experiment: Activation of p38 in Human Platelets
[25] = tested on: MAPK14 (murine); experiment: TNF-alpha Inhibition (In vivo Studies)
[26] = biological target: CDK2 (human) (UniProt P24941); experiment: Enzyme Assay
[27] = biological target: CDK2 (human) (UniProt P24941); experiment: Enzyme Assay; remark: listed apart in the source
[28] = biological target: PIK3CA (human) (UniProt P42336); experiment: Enzyme Assay
[29] = biological target: PIK3CB (Human) (UniProt P42338); experiment: Enzyme Assay
[30] = biological target: PIK3CD (Human) (UniProt O00329); experiment: Enzyme Assay
[31] = biological target: PIK3CG (human) (UniProt P48736); experiment: Enzyme Assay
[32] = biological target: PIK3CD (Human) (UniProt O00329); experiment: Cell-Based Assay; conditions: raji
[33] = biological target: EGFR (UniProt P00533); remark: listed apart in the source
[34] = biological target: MAPK14 (UniProt Q16539); experiment: p38 Inhibition (Phosphorylation of EGF Receptor Peptide)
[35] = tested on: MAPK14 (rat); experiment: p38-alpha Inhibition (Collagen-Induced Arthritis)
[36] = tested on: MAPK14 (rat); conditions: dose or concentration not given here
[37] = biological target: MAPK14 (UniProt Q16539)

Chain of EGFR (P00533 whole entry, looked up): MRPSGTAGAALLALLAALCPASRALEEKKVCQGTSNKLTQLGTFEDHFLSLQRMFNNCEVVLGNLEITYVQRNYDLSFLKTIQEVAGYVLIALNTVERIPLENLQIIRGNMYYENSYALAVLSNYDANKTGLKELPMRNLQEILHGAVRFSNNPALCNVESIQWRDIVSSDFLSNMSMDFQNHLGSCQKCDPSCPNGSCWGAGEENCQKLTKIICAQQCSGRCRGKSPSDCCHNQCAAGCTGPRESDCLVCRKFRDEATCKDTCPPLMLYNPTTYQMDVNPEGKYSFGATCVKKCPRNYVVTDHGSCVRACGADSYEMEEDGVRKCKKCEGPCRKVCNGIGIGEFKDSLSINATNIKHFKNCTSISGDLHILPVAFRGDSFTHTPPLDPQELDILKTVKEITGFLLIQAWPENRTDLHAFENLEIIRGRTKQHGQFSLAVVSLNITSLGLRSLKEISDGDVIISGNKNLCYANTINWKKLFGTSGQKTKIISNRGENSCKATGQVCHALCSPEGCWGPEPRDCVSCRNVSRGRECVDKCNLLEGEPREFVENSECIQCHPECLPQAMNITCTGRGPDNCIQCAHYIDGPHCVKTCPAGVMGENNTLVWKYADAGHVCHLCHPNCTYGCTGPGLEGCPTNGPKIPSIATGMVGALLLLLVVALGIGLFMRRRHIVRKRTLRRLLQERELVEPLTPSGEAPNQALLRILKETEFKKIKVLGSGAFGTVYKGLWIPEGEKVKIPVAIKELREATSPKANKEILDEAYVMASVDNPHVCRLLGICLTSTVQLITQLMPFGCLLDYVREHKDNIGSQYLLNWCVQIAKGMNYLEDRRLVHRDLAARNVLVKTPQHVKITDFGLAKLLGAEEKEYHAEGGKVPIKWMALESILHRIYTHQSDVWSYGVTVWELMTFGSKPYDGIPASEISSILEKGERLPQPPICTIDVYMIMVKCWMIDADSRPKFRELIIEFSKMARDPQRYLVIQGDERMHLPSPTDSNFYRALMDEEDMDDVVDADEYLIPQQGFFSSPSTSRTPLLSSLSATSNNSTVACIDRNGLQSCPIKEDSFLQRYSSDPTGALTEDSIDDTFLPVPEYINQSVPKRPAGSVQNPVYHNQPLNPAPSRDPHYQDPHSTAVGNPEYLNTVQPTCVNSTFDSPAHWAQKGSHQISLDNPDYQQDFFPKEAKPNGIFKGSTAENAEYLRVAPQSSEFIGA
Chain of PIK3CD (Human) (O00329 whole entry, looked up): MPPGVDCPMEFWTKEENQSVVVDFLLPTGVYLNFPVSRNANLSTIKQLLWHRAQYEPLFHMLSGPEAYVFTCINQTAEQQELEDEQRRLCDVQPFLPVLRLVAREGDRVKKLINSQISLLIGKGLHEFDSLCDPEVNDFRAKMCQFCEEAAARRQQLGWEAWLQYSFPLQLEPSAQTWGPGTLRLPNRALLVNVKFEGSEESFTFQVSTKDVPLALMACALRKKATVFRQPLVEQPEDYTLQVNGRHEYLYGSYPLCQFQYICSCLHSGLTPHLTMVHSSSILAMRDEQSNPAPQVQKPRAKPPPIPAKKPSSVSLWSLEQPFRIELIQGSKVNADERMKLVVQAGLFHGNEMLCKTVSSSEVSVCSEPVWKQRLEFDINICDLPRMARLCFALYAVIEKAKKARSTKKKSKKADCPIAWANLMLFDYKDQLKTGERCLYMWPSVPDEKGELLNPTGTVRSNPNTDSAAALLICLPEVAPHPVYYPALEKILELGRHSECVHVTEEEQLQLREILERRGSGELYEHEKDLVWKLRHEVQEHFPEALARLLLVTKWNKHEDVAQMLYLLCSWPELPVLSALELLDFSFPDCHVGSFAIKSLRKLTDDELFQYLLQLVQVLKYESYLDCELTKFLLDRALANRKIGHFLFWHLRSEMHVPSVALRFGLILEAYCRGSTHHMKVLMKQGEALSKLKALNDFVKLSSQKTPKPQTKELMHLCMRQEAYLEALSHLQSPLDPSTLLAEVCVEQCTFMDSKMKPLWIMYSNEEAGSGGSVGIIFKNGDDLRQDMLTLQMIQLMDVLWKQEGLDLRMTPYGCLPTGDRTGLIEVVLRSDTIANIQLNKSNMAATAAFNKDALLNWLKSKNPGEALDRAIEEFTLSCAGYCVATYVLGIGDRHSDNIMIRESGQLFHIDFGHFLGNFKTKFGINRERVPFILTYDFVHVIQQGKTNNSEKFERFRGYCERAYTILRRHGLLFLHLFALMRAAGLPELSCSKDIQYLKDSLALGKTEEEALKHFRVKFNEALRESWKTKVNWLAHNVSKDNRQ
Chain of MAPK14 (Q16539 whole entry, looked up): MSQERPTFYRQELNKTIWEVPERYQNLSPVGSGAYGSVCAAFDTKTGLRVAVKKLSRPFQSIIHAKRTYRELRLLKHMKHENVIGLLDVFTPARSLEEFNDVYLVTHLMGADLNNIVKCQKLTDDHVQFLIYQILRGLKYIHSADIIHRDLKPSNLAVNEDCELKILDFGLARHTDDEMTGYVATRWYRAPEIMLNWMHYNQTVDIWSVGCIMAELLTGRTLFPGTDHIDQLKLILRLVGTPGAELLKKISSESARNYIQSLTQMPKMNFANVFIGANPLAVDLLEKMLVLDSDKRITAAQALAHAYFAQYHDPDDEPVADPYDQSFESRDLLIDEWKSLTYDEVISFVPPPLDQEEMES
Chain of MAPK14 (human) (Q16539 whole entry, looked up): as above
Chain of PIK3CG (human) (P48736 whole entry, looked up): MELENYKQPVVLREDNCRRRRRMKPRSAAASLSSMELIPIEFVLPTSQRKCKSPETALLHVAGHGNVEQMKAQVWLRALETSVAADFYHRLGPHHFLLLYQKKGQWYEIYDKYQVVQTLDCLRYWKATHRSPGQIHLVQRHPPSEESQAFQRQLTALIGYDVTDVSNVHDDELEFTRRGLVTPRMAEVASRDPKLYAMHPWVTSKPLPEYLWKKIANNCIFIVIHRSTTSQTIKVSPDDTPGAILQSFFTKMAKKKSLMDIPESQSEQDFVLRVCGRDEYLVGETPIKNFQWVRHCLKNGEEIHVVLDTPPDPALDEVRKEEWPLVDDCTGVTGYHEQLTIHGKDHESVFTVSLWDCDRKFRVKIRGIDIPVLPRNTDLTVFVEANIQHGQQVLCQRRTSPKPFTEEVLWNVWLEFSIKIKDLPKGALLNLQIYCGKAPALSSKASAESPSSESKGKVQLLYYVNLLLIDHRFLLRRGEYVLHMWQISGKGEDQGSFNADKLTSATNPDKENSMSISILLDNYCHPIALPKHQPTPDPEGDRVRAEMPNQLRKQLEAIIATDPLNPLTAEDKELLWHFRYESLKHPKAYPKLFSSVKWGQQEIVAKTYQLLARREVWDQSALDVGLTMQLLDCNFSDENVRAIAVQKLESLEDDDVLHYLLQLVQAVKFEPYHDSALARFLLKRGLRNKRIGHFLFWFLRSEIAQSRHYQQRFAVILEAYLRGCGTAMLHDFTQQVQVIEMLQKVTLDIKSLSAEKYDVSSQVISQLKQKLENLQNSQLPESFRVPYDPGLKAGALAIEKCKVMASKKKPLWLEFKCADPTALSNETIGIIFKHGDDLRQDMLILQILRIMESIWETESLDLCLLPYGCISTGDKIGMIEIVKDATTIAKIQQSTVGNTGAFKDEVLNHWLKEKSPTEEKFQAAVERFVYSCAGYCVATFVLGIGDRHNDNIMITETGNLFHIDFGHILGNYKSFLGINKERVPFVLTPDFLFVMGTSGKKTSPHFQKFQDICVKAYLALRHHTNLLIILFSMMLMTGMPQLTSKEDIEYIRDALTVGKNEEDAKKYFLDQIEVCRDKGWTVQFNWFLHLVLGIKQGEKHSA
Chain of PIK3CB (Human) (P42338 whole entry, looked up): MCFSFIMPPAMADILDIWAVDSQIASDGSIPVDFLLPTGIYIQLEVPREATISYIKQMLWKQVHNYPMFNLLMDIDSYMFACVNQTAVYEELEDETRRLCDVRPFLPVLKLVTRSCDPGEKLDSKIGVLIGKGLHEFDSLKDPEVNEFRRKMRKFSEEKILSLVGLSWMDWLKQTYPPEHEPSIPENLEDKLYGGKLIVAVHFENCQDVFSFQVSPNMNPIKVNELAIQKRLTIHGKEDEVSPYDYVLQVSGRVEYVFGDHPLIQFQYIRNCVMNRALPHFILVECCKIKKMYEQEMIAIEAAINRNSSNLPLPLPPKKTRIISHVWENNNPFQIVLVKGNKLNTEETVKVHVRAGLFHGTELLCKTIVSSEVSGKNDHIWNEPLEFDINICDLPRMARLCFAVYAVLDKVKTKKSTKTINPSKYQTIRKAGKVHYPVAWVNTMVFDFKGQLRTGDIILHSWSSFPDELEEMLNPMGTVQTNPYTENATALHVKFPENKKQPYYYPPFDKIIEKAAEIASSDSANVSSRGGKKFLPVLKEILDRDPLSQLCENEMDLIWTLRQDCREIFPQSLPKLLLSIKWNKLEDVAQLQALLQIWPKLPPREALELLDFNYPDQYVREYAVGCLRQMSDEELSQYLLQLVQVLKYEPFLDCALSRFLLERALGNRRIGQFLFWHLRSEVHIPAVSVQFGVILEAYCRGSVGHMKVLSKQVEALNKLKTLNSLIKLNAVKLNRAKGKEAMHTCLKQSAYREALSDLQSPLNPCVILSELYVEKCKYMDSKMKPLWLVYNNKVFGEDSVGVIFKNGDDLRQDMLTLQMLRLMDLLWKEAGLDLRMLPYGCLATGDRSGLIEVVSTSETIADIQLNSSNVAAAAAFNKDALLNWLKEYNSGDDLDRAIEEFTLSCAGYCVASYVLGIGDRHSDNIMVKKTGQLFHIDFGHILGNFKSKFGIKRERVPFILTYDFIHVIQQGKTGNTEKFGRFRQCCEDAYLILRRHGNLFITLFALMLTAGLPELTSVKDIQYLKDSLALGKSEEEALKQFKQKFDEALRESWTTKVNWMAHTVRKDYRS
Chain of PIK3CD (Human), O00329 [Inhibition of PIK3CG Kinase Activity] (O00329 whole entry, looked up, change not shown): as the sequence (O00329 whole entry, looked up) above

SMILES: O=C1NCN2N=C(Sc3ccccc3Br)C=CC2=C1c1c(Cl)cccc1Cl
IC50 [1]: 240 nM
IC50 [2]: 160 nM

SMILES: CC(C)(Cc1ccccc1Br)Nc1nc(N2CCOCC2)nc(-n2c(C(F)F)nc3ccccc32)n1
IC50 [3]: 200 to 500 nM
IC50 [4]: < 100 nM
IC50 [5]: < 100 nM
IC50 [6]: < 100 nM

SMILES: CC[C@@H]1CC(=O)c2c(cc(O)c3c2C(=O)c2cccc(OC)c2C3=O)C1
IC50 [17]: 2110 nM

SMILES: O=C(Nc1cc2ccccc2cn1)c1ccccc1NCc1ccncc1
IC50 [18]: > 10000 nM

SMILES: CN1CCc2ccc(NC(=O)c3cccc(CNC(=O)c4ccc(-c5csnn5)cc4)c3)cc2C1
IC50 [20]: 4.6 nM
IC50 [21]: 4.6 nM

SMILES: Cc1nccc(-c2c(-c3ccc(F)cc3)ncn2C2CCCCC2)n1
ED50 [25]: 7.5 mg/kg

SMILES: C[C@H](NC(=O)c1c(N)nn2cccnc12)c1cc2cccc(Cl)c2c(=O)n1CCNS(=O)(=O)C(F)(F)F
IC50 [28]: 1000 to 10000 nM
IC50 [29]: 1000 to 10000 nM
IC50 [30]: 1000 to 10000 nM
IC50 [31]: 500 to 1000 nM
IC50 [32]: 10 to 100 nM

SMILES: O=C(Nc1cccc(Nc2nccc(-c3cccnc3)n2)c1)c1ccccc1S
IC50 [33]: > 50000 nM

SMILES: CN1CCC(O)(c2nc(-c3ccc(F)cc3)c(-c3ccncc3)o2)CC1
ED50 [35]: 20 mg/kg/day

The next lines start with results.

IC50 [7]: 3000 nM
IC50 [8]: 1300 nM
SMILES: O=c1ncn2nc(Sc3ccccc3)ccc2c1-c1c(Cl)cccc1Cl

IC50 [9]: 1500 nM
SMILES: COc1cc2ncc(C#N)c(Nc3cc(OC)c(OC)c(OC)c3)c2cc1OC

expression [10]: 10500 pg/mL and 5700 pg/mL
expression [11]: 3800 pg/mL and 10400 pg/mL
SMILES: CC(=NNC(=N)N)c1cc(NC(=O)CCCCCCCCC(=O)Nc2cc(C(C)=NNC(=N)N)cc(C(C)=NNC(=N)N)c2)cc(C(C)=NNC(=N)N)c1

IC50 [12]: 63 nM
IC50 [13]: 21 nM
IC50 [14]: 24.9 nM
Kd [15]: 2.6 nM
Kd [16]: 7 nM
SMILES: CN(C)C/C=C/C(=O)Nc1cccc(C(=O)Nc2ccc(Nc3nccc(-c4c(-c5ccccc5)nn5ccccc45)n3)cc2)c1

IC50 [19]: 2000 nM
SMILES: O=C(O)c1cc(/C=C/c2cc(O)ccc2O)ccc1O

IC50 [22]: < 1 nM
SMILES: CCN1CCN(CC(=O)Nc2ccc(-c3cccc4c(=O)cc(N5CCOCC5)oc34)c3sc4ccccc4c23)CC1

IC50 [23]: > 1620 nM
SMILES: O=C(O)CCC1C(=S)Nc2ccccc21 (configuration not stated)

phosphorylation [24]: 254 cpm and 231 cpm
SMILES: CCCCC/C=C\C/C=C\C/C=C\C/C=C\CCCC(=O)O

IC50 [26]: 72 nM
IC50 [27]: 1420 nM
SMILES: COc1cc(F)ccc1-c1cc(Nc2cc(CS(C)(=O)=NC#N)ccn2)ncc1F (configuration not stated)

IC50 [34]: > 20000 nM
SMILES: O=c1ncn2nc(Sc3ccccc3)ccc2c1-c1ccccc1

activity [37]: 6 nM
SMILES: COc1cc(N)nc2[nH]c(-c3ccc(F)cc3)c(-c3ccncc3)c12
inhibition [36]: 97%
